Data from patent US10562887B2, “Triazolones and tetrazolones as inhibitors of ROCK” (BRISTOL-MYERS SQUIBB COMPANY, priority 2016, dated 2020).

Tested on: rat stroke model
Assay: not given
Conditions: cited from earlier work

SMILES	infarct size and neurologic deficit
O=S(=O)(c1cccc2cnccc12)N1CCCNCC1 [fasudil]	reduce both the infarct size and neurologic deficit

Tested on: neointimal formation
Assay: not given
Conditions: rats; cited from earlier work

SMILES	neointimal formation
C[C@@H](N)[C@H]1CC[C@H](C(=O)Nc2ccncc2)CC1 [Example Y-27632, Y-27632]	inhibited neointimal formation

Tested on: IL-1 beta-induced coronary stenosis
Assay: not given
Conditions: long term treatment, porcine model; cited from earlier work

SMILES	coronary constrictive remodeling	coronary stenosis
O=S(=O)(c1cccc2cnccc12)N1CCCNCC1 [fasudil]	promote a regression	progressively reduce coronary stenosis

Target: ROCK2 (Homo sapiens (Human), UniProt O75116)
Assay: ROCK2 assay (peptide phosphorylation, LABCHIP 3000 Reader)
Assay type: biochemical
Conditions: 5 μM ATP, 1.5 μM peptide substrate
How it was run: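 Human ROCK2 reaction in 20 mM HEPES pH 7.5, 20 mM MgCl2, 0.015% Brij-35, 4 mM DTT, with 5 μM ATP and 1.5 μM FITC-labelled peptide, DMSO <2%. Stopped with EDTA; phosphorylated and unphosphorylated peptide separated by microfluidic mobility shift. IC50 from dose-response curve fit.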

ROCK2, sequence (O75116 whole entry, species assumed): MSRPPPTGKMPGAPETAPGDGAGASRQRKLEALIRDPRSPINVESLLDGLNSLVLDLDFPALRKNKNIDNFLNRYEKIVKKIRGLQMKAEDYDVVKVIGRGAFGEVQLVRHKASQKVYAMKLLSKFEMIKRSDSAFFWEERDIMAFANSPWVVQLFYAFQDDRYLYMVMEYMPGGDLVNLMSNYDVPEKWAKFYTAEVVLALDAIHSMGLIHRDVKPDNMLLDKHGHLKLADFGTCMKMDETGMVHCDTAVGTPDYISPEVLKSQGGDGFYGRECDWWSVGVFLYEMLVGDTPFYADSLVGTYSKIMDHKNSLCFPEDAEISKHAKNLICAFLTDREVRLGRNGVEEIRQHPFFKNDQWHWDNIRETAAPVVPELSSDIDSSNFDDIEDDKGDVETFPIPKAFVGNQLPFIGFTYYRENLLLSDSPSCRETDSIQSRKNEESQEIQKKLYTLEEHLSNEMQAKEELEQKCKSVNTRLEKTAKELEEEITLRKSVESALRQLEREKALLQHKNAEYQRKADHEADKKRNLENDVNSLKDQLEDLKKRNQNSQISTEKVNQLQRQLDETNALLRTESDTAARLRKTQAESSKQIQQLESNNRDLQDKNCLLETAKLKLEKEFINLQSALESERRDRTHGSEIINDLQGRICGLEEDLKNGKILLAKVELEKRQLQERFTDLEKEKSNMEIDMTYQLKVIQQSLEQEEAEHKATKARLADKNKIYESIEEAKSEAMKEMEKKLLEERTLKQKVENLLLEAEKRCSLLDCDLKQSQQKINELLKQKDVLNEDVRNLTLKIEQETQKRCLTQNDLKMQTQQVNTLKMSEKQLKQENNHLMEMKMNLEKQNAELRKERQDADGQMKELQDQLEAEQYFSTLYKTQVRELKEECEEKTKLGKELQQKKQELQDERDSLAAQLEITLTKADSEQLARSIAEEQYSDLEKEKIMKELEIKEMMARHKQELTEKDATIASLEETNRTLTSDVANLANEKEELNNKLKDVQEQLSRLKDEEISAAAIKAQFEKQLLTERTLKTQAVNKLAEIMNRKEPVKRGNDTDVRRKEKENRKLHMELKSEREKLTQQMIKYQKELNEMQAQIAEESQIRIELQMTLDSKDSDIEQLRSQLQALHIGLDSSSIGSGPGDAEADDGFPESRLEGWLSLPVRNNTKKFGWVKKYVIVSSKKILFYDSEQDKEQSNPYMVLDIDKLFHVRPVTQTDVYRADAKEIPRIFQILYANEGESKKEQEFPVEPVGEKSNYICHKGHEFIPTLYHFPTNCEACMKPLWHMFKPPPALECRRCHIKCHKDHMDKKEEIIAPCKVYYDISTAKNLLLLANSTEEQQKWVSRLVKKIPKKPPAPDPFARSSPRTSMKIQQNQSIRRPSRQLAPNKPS

SMILES	IC50 [nM]
COc1ccc(Cn2c(CO)nn(-c3ccc(-c4cn[nH]c4)cc3)c2=O)cc1F [Example 159, 1-(4-(1H-pyrazol-4-yl)phenyl)-4-(3-fluoro-4-methoxybenzyl)-3-(hydroxymethyl)-1H-1,2,4-triazol-5(4H)-one]	250 to 2000
COc1cccc(Cn2c(CO)nn(-c3ccc(-c4cn[nH]c4)cc3)c2=O)c1F [Example 160, 1-(4-(1H-pyrazol-4-yl)phenyl)-4-(2-fluoro-3-methoxybenzyl)-3-(hydroxymethyl)-1H-1,2,4-triazol-5(4H)-one]	250 to 2000
COc1cccc(Cn2c(C)nn(-c3ccc(-c4ccnc(N)c4)cc3)c2=O)c1 [Example 161, 1-(4-(2-aminopyridin-4-yl)phenyl)-4-(3-methoxybenzyl)-3-methyl-1H-1,2,4-triazol-5(4H)-one]	50 to 250
COc1cccc(Cn2cnn(-c3ccc(-c4ccnc(N)c4)cc3)c2=O)c1 [Example 162, 1-(4-(2-aminopyridin-4-yl)phenyl)-4-(3-methoxybenzyl)-1H-1,2,4-triazol-5(4H)-one]	5 to 50
COc1cccc(Cn2cnn(-c3ccc(-c4ncnc5[nH]ccc45)cc3)c2=O)c1 [Example 163, 1-(4-(7H-pyrrolo[2,3-d]pyrimidin-4-yl)phenyl)-4-(3-methoxybenzyl)-1H-1,2,4-triazol-5(4H)-one]	50 to 250
COc1cccc(Cn2c(C)nn(-c3ccc(-c4ncnc5[nH]ccc45)cc3)c2=O)c1 [Example 164, 1-(4-(7H-pyrrolo[2,3-d]pyrimidin-4-yl)phenyl)-4-(3-methoxybenzyl)-3-methyl-1H-1,2,4-triazol-5(4H)-one]	250 to 2000
COc1cccc(Cn2c(C)nn(-c3ccc(-c4ccnc5[nH]ccc45)cc3)c2=O)c1 [Example 165, 1-(4-(1H-pyrrolo[2,3-b]pyridin-4-yl)phenyl)-4-(3-methoxybenzyl)-3-methyl-1H-1,2,4-triazol-5(4H)-one]	5 to 50
COc1cccc(Cn2c(C)nn(-c3ccc(-c4ccnc(N)n4)cc3)c2=O)c1 [Example 166, 1-(4-(2-aminopyrimidin-4-yl)phenyl)-4-(3-methoxybenzyl)-3-methyl-1H-1,2,4-triazol-5(4H)-one]	5 to 50
COc1cccc(Cn2cnn(-c3ccc(-c4ccnc5[nH]ccc45)cc3)c2=O)c1 [Example 169, 1-(4-(1H-pyrrolo[2,3-b]pyridin-4-yl)phenyl)-4-(3-methoxybenzyl)-1H-1,2,4-triazol-5(4H)-one]	< 5
COc1cccc(Cn2cnn(-c3ccc(-c4ccnc(N)n4)cc3)c2=O)c1 [Example 170, 1-(4-(2-aminopyrimidin-4-yl)phenyl)-4-(3-methoxybenzyl)-1H-1,2,4-triazol-5(4H)-one]	5 to 50
COc1cccc(Cn2nnn(-c3ccc(-c4cn[nH]c4)cc3)c2=O)c1 [Example 172, 1-(4-(1H-pyrazol-4-yl)phenyl)-4-(3-methoxybenzyl)-1H-tetrazol-5(4H)-one]	5 to 50
O=c1n(Cc2cccc(F)c2)nnn1-c1ccc(-c2cn[nH]c2)cc1 [Example 173, 1-(4-(1H-pyrazol-4-yl)phenyl)-4-(3-fluorobenzyl)-1H-tetrazol-5(4H)-one]	50 to 250
O=c1n(Cc2cc(F)ccc2F)nnn1-c1ccc(-c2cn[nH]c2)cc1 [Example 174, 1-(4-(1H-pyrazol-4-yl)phenyl)-4-(2,5-difluorobenzyl)-1H-tetrazol-5(4H)-one]	50 to 250
COc1cc(F)cc(Cn2nnn(-c3ccc(-c4cn[nH]c4)cc3)c2=O)c1 [Example 175, 1-(4-(1H-pyrazol-4-yl)phenyl)-4-(3-fluoro-5-methoxybenzyl)-1H-tetrazol-5(4H)-one]	5 to 50
CC(c1ccccc1)n1nnn(-c2ccc(-c3cn[nH]c3)cc2)c1=O (stereo not drawn) [Example 176, 1-(4-(1H-pyrazol-4-yl)phenyl)-4-(1-phenylethyl)-1H-tetrazol-5(4H)-one]	5 to 50
O=c1n(Cc2ccccc2Cl)nnn1-c1ccc(-c2cn[nH]c2)cc1 [Example 177, 1-(4-(1H-pyrazol-4-yl)phenyl)-4-(2-chlorobenzyl)-1H-tetrazol-5(4H)-one]	50 to 250
O=c1n(Cc2ccccc2)nnn1-c1ccc(-c2cn[nH]c2)cc1 [Example 178, 1-(4-(1H-pyrazol-4-yl)phenyl)-4-benzyl-1H-tetrazol-5(4H)-one]	5 to 50
COc1cc(-n2nnn(Cc3ccccc3)c2=O)ccc1-c1cn[nH]c1 [Example 179, 1-benzyl-4-(3-methoxy-4-(1H-pyrazol-4-yl)phenyl)-1H-tetrazol-5(4H)-one]	50 to 250
COc1cc(-n2nnn(Cc3cccc(F)c3)c2=O)ccc1-c1cn[nH]c1 [Example 180, 1-(3-fluorobenzyl)-4-(3-methoxy-4-(1H-pyrazol-4-yl)phenyl)-1H-tetrazol-5(4H)-one]	5 to 50
COc1cc(-n2nnn(Cc3cc(F)ccc3F)c2=O)ccc1-c1cn[nH]c1 [Example 181, 1-(2,5-difluorobenzyl)-4-(3-methoxy-4-(1H-pyrazol-4-yl)phenyl)-1H-tetrazol-5(4H)-one]	50 to 250
COc1cc(F)cc(Cn2nnn(-c3ccc(-c4cn[nH]c4)c(OC)c3)c2=O)c1 [Example 182, 1-(3-fluoro-5-methoxybenzyl)-4-(3-methoxy-4-(1H-pyrazol-4-yl)phenyl)-1H-tetrazol-5(4H)-one]	5 to 50
COc1cc(-n2nnn(Cc3ccccc3F)c2=O)ccc1-c1cn[nH]c1 [Example 183, 1-(2-fluorobenzyl)-4-(3-methoxy-4-(1H-pyrazol-4-yl)phenyl)-1H-tetrazol-5(4H)-one]	50 to 250
COc1cc(-n2nnn(Cc3c(F)cccc3F)c2=O)ccc1-c1cn[nH]c1 [Example 184, 1-(2,6-difluorobenzyl)-4-(3-methoxy-4-(1H-pyrazol-4-yl)phenyl)-1H-tetrazol-5(4H)-one]	50 to 250
COc1cc(-n2nnn(Cc3cccc(C#N)c3)c2=O)ccc1-c1cn[nH]c1 [Example 185, 3-((4-(3-methoxy-4-(1H-pyrazol-4-yl)phenyl)-5-oxo-4,5-dihydro-1H-tetrazol-1-yl)methyl)benzonitrile]	250 to 2000
COc1cc(-n2nnn(Cc3ccc(F)cc3)c2=O)ccc1-c1cn[nH]c1 [Example 186, 1-(4-fluorobenzyl)-4-(3-methoxy-4-(1H-pyrazol-4-yl)phenyl)-1H-tetrazol-5(4H)-one]	250 to 2000
COc1cccc(Cn2nnn(-c3ccc(-c4cn[nH]c4)c(OC)c3)c2=O)c1 [Example 187, 1-(3-methoxy-4-(1H-pyrazol-4-yl)phenyl)-4-(3-methoxybenzyl)-1H-tetrazol-5(4H)-one]	5 to 50

Tested on: congestive heart failure in Dahl salt-sensitive rats
Assay: not given
Conditions: cited from earlier work

SMILES	ventricular hypertrophy, fibrosis and function
C[C@@H](N)[C@H]1CC[C@H](C(=O)Nc2ccncc2)CC1 [Example Y-27632, Y-27632]	improve

Tested on: spontaneously hypertensive rat, renal hypertensive rat and deoxycortisone acetate salt hypertensive rat models
Assay: not given
Conditions: control rats; cited from earlier work

SMILES	blood pressure
C[C@@H](N)[C@H]1CC[C@H](C(=O)Nc2ccncc2)CC1 [Example Y-27632, Y-27632]	only a minor effect

Same assay, conditions: three rat models of hypertension; cited from earlier work

SMILES	blood pressure
C[C@@H](N)[C@H]1CC[C@H](C(=O)Nc2ccncc2)CC1 [Example Y-27632, Y-27632]	significantly decrease blood pressure
